Experimental data published in patent US7135466B2 (Kirin Beer Kabushiki Kaisha, priority 1999, dated 2006).
Like-named read-outs stand apart in the source and are kept apart here.

Legend:
[1] = target: T1, c-kit (Homo sapiens, UniProt P10721); assay: Inhibitory activity against c-kit autophosphorylation (MO7e cells, h-SCF); format: cell-based; conditions: for IC50: MO7e cells, read-out: c-kit IC50; for inhibition at 1 µM: Mo7e, at 1000 nM
T1 construct: MO7e (human megakaryocytic leukemia cell line) which had been arrested for 20 hr; endogenous in cells; host or cells: MO7e human megakaryocytic leukemia cell line
Procedure, shortened: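 MO7e human megakaryocytic leukemia cells, arrested 20 hr, treated with compound 1 hr, then stimulated with 50 ng/ml h-SCF for 5 min and lysed. Lysates captured on immobilized anti-phosphotyrosine antibody, detected with anti-c-kit primary and HRP secondary antibody; absorbance at 450 nm.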

[2] = target: T2, PDGF-Ra (Homo sapiens, UniProt P16234); assay: Inhibitory activity against PDGF-Ra phosphorylation by PDGF-AA stimulation using G292; format: cell-based; conditions: for IC50: > means inhibition at indicated concentration not more than 50%, < and << not less than 50%, read-out: PDGF (E) IC50; for inhibition at 0.1 µM: G292, at 100 nM, read-out: PDGF (E) inhibition (%) at 100 nM
T2 construct: host or cells: G-292 human osteosarcoma cells
Procedure, shortened: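 In G-292 osteosarcoma cells kept overnight in 0.1% FBS, compound exposure (1 hr, 37 °C) preceded PDGF-AA stimulation at 50 ng/ml for 5 min; receptor phosphotyrosine was then detected by PY-20 capture ELISA.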

[3] = figure within parentheses in −( ) or >1000( )

T2 sequence (P16234 24-1089): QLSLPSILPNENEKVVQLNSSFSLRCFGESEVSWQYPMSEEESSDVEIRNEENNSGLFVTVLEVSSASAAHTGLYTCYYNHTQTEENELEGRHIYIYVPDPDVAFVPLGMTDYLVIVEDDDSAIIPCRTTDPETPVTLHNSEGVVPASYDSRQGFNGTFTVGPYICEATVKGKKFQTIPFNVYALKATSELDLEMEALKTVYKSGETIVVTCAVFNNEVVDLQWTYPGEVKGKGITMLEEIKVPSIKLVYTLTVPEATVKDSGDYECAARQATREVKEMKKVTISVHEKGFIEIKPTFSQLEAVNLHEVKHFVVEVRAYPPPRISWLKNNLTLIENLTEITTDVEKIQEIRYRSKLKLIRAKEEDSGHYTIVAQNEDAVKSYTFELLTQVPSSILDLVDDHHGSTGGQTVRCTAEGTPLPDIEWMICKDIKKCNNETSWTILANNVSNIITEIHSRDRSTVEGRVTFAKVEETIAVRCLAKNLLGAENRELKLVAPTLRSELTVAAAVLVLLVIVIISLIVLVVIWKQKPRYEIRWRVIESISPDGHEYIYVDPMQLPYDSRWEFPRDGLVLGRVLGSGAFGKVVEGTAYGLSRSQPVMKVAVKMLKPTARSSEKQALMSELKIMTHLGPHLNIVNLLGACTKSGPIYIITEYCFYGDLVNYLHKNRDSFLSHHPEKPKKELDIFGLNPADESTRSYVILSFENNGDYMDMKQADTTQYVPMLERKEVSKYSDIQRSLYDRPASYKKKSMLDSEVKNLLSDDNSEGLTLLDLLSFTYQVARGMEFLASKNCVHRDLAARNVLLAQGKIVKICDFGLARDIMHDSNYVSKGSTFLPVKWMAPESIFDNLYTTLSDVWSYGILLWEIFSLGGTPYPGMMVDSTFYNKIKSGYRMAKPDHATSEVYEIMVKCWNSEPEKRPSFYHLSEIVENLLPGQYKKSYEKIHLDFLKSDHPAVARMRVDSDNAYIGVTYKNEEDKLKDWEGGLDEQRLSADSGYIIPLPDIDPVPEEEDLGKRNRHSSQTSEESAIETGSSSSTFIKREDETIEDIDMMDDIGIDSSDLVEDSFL
T1 sequence (P10721 26-976): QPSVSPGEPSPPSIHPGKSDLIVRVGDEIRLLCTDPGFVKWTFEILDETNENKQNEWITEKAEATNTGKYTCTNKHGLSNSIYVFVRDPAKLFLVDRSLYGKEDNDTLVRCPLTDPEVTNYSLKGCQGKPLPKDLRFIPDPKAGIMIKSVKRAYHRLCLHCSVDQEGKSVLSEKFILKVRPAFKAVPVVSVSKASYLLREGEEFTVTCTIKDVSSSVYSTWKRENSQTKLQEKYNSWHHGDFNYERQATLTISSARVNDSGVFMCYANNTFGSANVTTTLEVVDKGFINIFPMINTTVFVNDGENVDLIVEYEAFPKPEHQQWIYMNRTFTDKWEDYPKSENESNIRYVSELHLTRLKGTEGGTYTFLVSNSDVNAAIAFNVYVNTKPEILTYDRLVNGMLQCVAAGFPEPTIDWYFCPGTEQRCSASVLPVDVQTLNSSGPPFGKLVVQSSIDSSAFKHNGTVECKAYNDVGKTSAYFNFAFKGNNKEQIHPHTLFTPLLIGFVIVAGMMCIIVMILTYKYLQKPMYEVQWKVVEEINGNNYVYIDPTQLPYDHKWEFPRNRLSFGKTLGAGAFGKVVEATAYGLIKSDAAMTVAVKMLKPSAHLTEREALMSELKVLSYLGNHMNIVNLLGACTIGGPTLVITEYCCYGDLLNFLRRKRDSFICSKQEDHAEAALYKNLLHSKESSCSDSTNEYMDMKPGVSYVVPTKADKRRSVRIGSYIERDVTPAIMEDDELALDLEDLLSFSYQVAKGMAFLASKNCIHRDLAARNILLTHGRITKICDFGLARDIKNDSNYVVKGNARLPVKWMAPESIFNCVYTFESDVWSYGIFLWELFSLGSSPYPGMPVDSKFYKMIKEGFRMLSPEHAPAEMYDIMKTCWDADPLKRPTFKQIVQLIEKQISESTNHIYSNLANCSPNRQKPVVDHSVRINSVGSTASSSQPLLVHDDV

IC50 [2] | IC50 ([1]; h-SCF 50 ng/ml) | IC50 ([2]; Pharmacological Test Example 1) | Structure (SMILES) | also measured
40 nM | – | – | CCN(CC)CCNC(=O)Nc1ccc(Oc2ccnc3cc(OC)c(OC)cc23)c(Cl)c1 [Example 651, N-{3-Chloro-4-[(6,7-dimethoxy-4-quinolyl)oxy]phenyl}-N′-[2-(diethylamino)ethyl]urea] | IC50 ([1]; 50 ng/ml h-SCF): 808 nM
> 100 nM | – | – | CCOCCC(=O)NC(=S)Nc1ccc(Oc2ccnc3cc(OC)c(OC)cc23)c(Cl)c1 [Example 1071, N-{3-Chloro-4-[(6,7-dimethoxy-4-quinolyl)oxy]phenyl}-N′-(3-ethoxypropanoyl)thiourea] | inhibition at 1 µM ([1]; figure in parentheses in −( )): 0%; inhibition at 0.1 µM ([2]; figure in parentheses in >100( )): 17%
36 nM | – | – | COc1cc2ncnc(Oc3ccc(NC(=O)N[C@H]4CCN(Cc5ccccc5)C4)c(Cl)c3)c2cc1OC [Example 576, N-[(3S)-1-Benzyltetrahydro-1H-3-pyrrolyl]-N′-{2-chloro-4-[(6,7-dimethoxy-4-quinazolinyl)oxy]phenyl}urea] | IC50 ([1]; 50 ng/ml h-SCF): 151 nM
< 10 nM | – | – | COc1cc2ncnc(Oc3ccc(NC(=S)NC(=O)CC4CCCCC4)cc3)c2cc1OC [Example 705, N-(2-Cyclohexylacetyl)-N′-{4-[(6,7-dimethoxy-4-quinazolinyl)oxy]phenyl}thiourea] | IC50 ([1]; 50 ng/ml h-SCF): 147 nM
11 nM | – | – | COc1cc2nccc(Oc3ccc(NC(=S)NC(=O)Cc4ccccc4)c(F)c3)c2cc1OC [Example 1024, N-{4-[(6,7-Dimethoxy-4-quinolyl)oxy]-2-fluorophenyl}-N′-(2-phenylacetyl)thiourea] | IC50 ([1]; h-SCF stimulation): 141 nM
< 10 nM | – | – | COc1cc2ncnc(Oc3ccc(NC(=S)NC(=O)C4(C)CCCCC4)cc3)c2cc1OC [Example 1193, N-{4-[(6,7-Dimethoxy-4-quinazolinyl)oxy]phenyl}-N′-[(1-methylcyclohexyl)carbonyl]thiourea] | inhibition at 1 µM ([1]; figure in parentheses in −( )): 18%
12 nM | – | – | COc1cc2nccc(Oc3ccc(NCCCOc4ccccc4C)cc3)c2cc1OC [Example 888, N-{4-[(6,7-Dimethoxy-4-quinolyl)oxy]phenyl}-N-[3-(2-methylphenoxy)propyl]amine] | IC50 ([1]; h-SCF stimulation): 385 nM
13 nM | – | – | COc1cc2nccc(Oc3ccc(NC(=S)NC(=O)c4cc(C)oc4C)cc3Cl)c2cc1OC [Example 699, N-{3-Chloro-4-[(6,7-dimethoxy-4-quinolyl)oxy]phenyl}-N′-[(2,5-dimethyl-3-furyl)carbonyl]thiourea] | inhibition at 1 µM [1, 3]: 29%
> 30 nM | – | – | COc1cc2nccc(Oc3ccc(NCCOc4c(F)cccc4F)cc3C)c2cc1OC [Example 883, N-[2-(2,6-Difluorophenoxy)ethyl]-N-{4-[(6,7-dimethoxy-4-quinolyl)oxy]-3-methylphenyl}amine] | IC50 ([1]; h-SCF stimulation): 521 nM; PDGF (E) inhibition (%), figure in parentheses in >30( ) ([2]; figure in parentheses in >30( ), concentration not defined in key (presumably 30 nM)): >30(30) %
3 nM | – | – | COc1cc2nccc(Oc3ccc(NC(=S)NC(=O)c4ccc(CCl)cc4)cc3F)c2cc1OC [Example 1000, N-[4-(Chloromethyl)benzoyl]-N′-{4-[(6,7-dimethoxy-4-quinolyl)oxy]-3-fluorophenyl}thiourea] | IC50 ([1]; h-SCF stimulation): 771 nM
80 nM | – | – | COc1cc2nccc(Oc3ccc(NC(=O)NC4CC(C)(C)NC(C)(C)C4)cc3)c2cc1OC [Example 562, N-{4-[(6,7-Dimethoxy-4-quinolyl)oxy]-phenyl}-N′-(2,2,6,6-tetramethyl-4-piperidyl)urea] | inhibition at 1 µM [1, 3]: 27%
44 nM | – | – | COc1cc2nccc(Oc3ccc(NCCOc4c(OC)cccc4OC)c(C)c3C)c2cc1OC [Example 884, N-[2-(2,6-Dimethoxyphenoxy)ethyl]-N-{4-[(6,7-dimethoxy-4-quinolyl)oxy]-2,3-dimethylphenyl}amine] | inhibition at 1 µM ([1]; figure in parentheses in −( )): 30%
36 nM | – | – | COc1cc2nccc(Oc3ccc(NC(=S)NC(=O)CCc4ccc(C)cc4)cc3)c2cc1OC [Example 721, N-{4-[(6,7-Dimethoxy-4-quinolyl)oxy]phenyl}-N′-[3-(4-methylphenyl)propanoyl]thiourea] | inhibition at 1 µM [1, 3]: 20%
29 nM | – | – | CCCCc1ccc(C(=O)NC(=S)Nc2ccc(Oc3ccnc4cc(OC)c(OC)cc34)c(F)c2)cc1 [Example 999, N-(4-Butylbenzoyl)-N′-{4-[(6,7-dimethoxy-4-quinolyl)oxy]-3-fluorophenyl}thiourea] | inhibition at 1 µM ([1]; figure in parentheses in −( )): 45%
13 nM | – | – | COc1cc2ncnc(Oc3ccc(OCC(=O)N4CCC(c5ccccc5)CC4)cc3)c2cc1OC [Example 803, 2-{4-[(6,7-Dimethoxy-4-quinazolinyl)oxy]phenoxy}-1-(4-phenylpiperidino)-1-ethanone] | inhibition at 1 µM [1, 3]: 20%
< 10 nM | – | – | COc1cc2ncnc(Oc3ccc(NC(=S)NC(=O)CCCCl)cc3)c2cc1OC [Example 1186, N-(4-Chlorobutanoyl)-N′-{4-[(6,7-dimethoxy-4-quinazolinyl)oxy]phenyl}thiourea] | IC50 ([1]; h-SCF stimulation): 405 nM

Second part, the compound before the results:

Structure (SMILES) | IC50 [2] | IC50 ([1]; h-SCF 50 ng/ml) | IC50 ([2]; Pharmacological Test Example 1) | also measured
COc1cc2nccc(Oc3cc(C)c(NC(=O)OCCN4CCCCC4)cc3C)c2cc1OC [Example 304, 2-Piperidinoethyl N-{4-[(6,7-dimethoxy-4-quinolyl)oxy]-2,5-dimethylphenyl}carbamate] | – | 401 nM | 63 nM | –
COc1cc2ncnc(Oc3ccc(NC(=O)OCC4CCCC4)c(Cl)c3)c2cc1OC [Example 398, Cyclopentylmethyl N-{2-chloro-4-[(6,7-dimethoxy-4-quinazolinyl)oxy]phenyl}carbamate] | – | 462 nM | 33 nM | –
COc1cc2nccc(Oc3ccc(NC(=O)OC(C)c4cccc(Br)c4)c(C)c3C)c2cc1OC (stereo not shown) [Example 118, 1-(3-Bromophenyl)ethyl N-{4-[(6,7-dimethoxy-4-quinolyl)oxy]-2,3-dimethylphenyl}carbamate] | – | 746 nM | 33 nM | –
COc1cc2ncnc(Oc3ccc(NC(=O)OC4CCCCC4)c(Cl)c3)c2cc1OC [Example 313] | – | 330 nM | < 10 nM | –
COc1cc2nccc(Oc3cc(C)c(NC(=O)OC(C)c4ccccc4Br)cc3C)c2cc1OC (stereo not shown) [Example 114, 1-(2-Bromophenyl)ethyl N-{4-[(6,7-dimethoxy-4-quinolyl)oxy]-2,5-dimethylphenyl}carbamate] | – | 602 nM | 65 nM | –
COc1ccc(OC)c(COC(=O)Nc2cc(C)c(Oc3ccnc4cc(OC)c(OC)cc34)cc2C)c1 [Example 69, 2,5-Dimethoxybenzyl N-{4-[(6,7-dimethoxy-4-quinolyl)oxy]-2,5-dimethylphenyl}carbamate] | – | 755 nM | 53 nM | –
CCCC(CCN1CCN(C)CC1)OC(=O)Nc1ccc(Oc2ccnc3cc(OC)c(OC)cc23)cc1 (stereo not shown) [Example 449, 1-[2-(4-Methylpiperazino)ethyl]butyl N-{4-[(6,7-dimethoxy-4-quinolyl)oxy]phenyl}carbamate] | > 100 nM | – | – | IC50 ([1]; 50 ng/ml h-SCF): 747 nM; inhibition at 0.1 µM ([2]; figure within parentheses in >100( )): 26%
COc1cc2ncnc(Oc3ccc(N(C)C(=O)OC4CCCCC4)c(Cl)c3)c2cc1OC [Example 474, Cyclohexyl N-{2-chloro-4-[(6,7-dimethoxy-4-quinazolinyl)oxy]phenyl}-N-methylcarbamate] | 46 nM | – | – | inhibition at 1 µM [1, 3]: 6%
COc1cc2nccc(Oc3cc(C)c(NC(=S)NCCN4CCOCC4)cc3C)c2cc1OC [Example 545, N-{4-[(6,7-Dimethoxy-4-quinolyl)oxy]-2,5-dimethylphenyl}-N′-[2-(1-morpholino)ethyl]thiourea] | 70 nM | – | – | IC50 ([1]; 50 ng/ml h-SCF): 254 nM
COc1cc2ncnc(Oc3ccc(NC(=O)OCCCSc4ccc(Cl)cc4C)cc3)c2cc1OC [Example 80] | – | 137 nM | 12 nM | –
COc1ccccc1COC(=O)N(C)c1ccc(Oc2ncnc3cc(OC)c(OC)cc23)cc1 [Example 490, 2-Methoxybenzyl N-{4-[(6,7-dimethoxy-4-quinazolinyl)oxy]phenyl}-N-methylcarbamate] | 21 nM | – | – | IC50 ([1]; 50 ng/ml h-SCF): 261 nM
COc1cc2nccc(Oc3ccc(NC(=O)OCc4ccc(F)cc4)cc3)c2cc1OC [Example 8, 4-Fluorobenzyl N-{4-[(6,7-dimethoxy-4-quinolyl)oxy]phenyl}carbamate] | – | 62 nM | < 10 nM | –
COc1cc2nccc(Oc3ccc(NC(=O)OCc4ccccn4)c(C)c3C)c2cc1OC [Example 431, 2-Pyridylmethyl N-{4-[(6,7-dimethoxy-4-quinolyl)oxy]-2,3-dimethylphenyl}carbamate] | 17 nM | – | – | IC50 ([1]; 50 ng/ml h-SCF): 43 nM
COc1ccccc1COC(=O)Nc1ccc(Oc2ccnc3cc(OC)c(OC)cc23)cc1 [Example 248, 2-Methoxybenzyl N-{4-[(6,7-dimethoxy-4-quinolyl)oxy]phenyl}carbamate] | – | 147 nM | 11 nM | –
COc1cc2ncnc(Oc3ccc(NC(=O)OC4CCCCC4)c([N+](=O)[O-])c3)c2cc1OC [Example 503, Cyclohexyl N-{4-[(6,7-dimethoxy-4-quinazolinyl)oxy]-2-nitrophenyl}carbamate] | 87 nM | – | – | inhibition at 1 µM [1, 3]: 36%
COc1cc2ncnc(Oc3ccc(NC(=O)OCCCOc4ccccc4F)cc3)c2cc1OC [Example 145, 3-(2-Fluorophenoxy) propyl N-{4-[(6,7-dimethoxy-4-quinazolinyl)oxy]phenyl}carbamate] | – | < 30 nM | < 10 nM | –
